Test results taken from patent US11718624B2, “Solid state forms of substituted pyrazolopyrimidines and uses thereof” (KSQ Therapeutics, Inc., priority 2020, dated 2023).
Where two headings read alike, the source gives them in different places. Values belong to the molecule of their own block, whether it stands above or below them.

How the values were obtained:
[1] = Co-crystal screening experiments with Formula II (Table 17); type: physicochemical; details: XRPD
Experimental: Additional co-crystal screens were carried out to identify further solid state forms of Formula (II).
Differential scanning calorimetry (DSC) was carried out with a TA Instruments Q2000 instrument (closed aluminum sample pan aluminum sample pan with a pinhole in the lid, heating rate 20 K/min). The melting point is understood as the peak maximum.
Light microscopy was performed on a Leitz Orthoplan polarized microscope part #130880, generally a 10×10 magnification was applied.
X-ray powder diffraction (XRPD) was carried out with a Stoe Stadi P diffractometer equipped with a Mythen1K detector operating with Cu-Kα1 radiation. The measurements with this instrument were performed in transmission at a tube voltage of 40 kV and 40 mA tube power. A curved Ge monochromator allows testing with Cu-Kα1 radiation. The following parameters were set: 0.02° 2θ step size, 12 s step time, 1.5-50.5° 2θ scanning range, and 1° 2θ detector step (detector mode in step scan). For a typical sample preparation about 10 mg of sample was placed between two acetate foils and mounted into a Stoe transmission sample holder. The sample was rotated during the measurement. All sample preparation and measurement was done in an ambient air atmosphere.
TG-FTIR measurements were carried out with a Netzsch Thermo-Microblanace TG209 coupled to a Bruker FTIR Spectrometer Vector 22 (sample pans with a pinhole, N2 atmosphere, heating rate 10° C./min to 300 or 350° C.).
The starting material was a freebase form of Formula (II).

[2] = Mouse pharmacokinetic study, single oral dose, plasma; type: in vivo, NOD/SCID mice
Experimental: Mouse pharmacokinetic (PK) studies were conducted using Crystalline Form A of 6-(4-cyclopropyl-6-methoxypyrimidin-5-yl)-1-(4-(1-isopropyl-4-(trifluoromethyl)-1H-imidazol-2-yl)benzyl)-1H-pyrazolo[3,4-d]pyrimidine, as disclosed herein, Crystalline Form 2 of a gentisic acid co-crystal of 6-(4-cyclopropyl-6-methoxypyrimidin-5-yl)-1-(4-(1-isopropyl-4-(trifluoromethyl)-1H-imidazol-2-yl)benzyl)-1H-pyrazolo[3,4-d]pyrimidine, as disclosed herein, and Crystalline Form 8 of a benzoic acid co-crystal of 6-(4-cyclopropyl-6-methoxypyrimidin-5-yl)-1-(4-(1-isopropyl-4-(trifluoromethyl)-1H-imidazol-2-yl)benzyl)-1H-pyrazolo[3,4-d]pyrimidine, as disclosed herein.
The PK studies consisted of single dose oral exposure studies, which were conducted in female NOD/SCID mice (approximately 6 to 8 weeks, and 20-30 g at the time of study) using a compound dose of 300 mg/kg and a dosing volume of 10 mL/kg. The mice were fasted overnight prior to dosing. Animals had free access to food and water post-dosing.
(§1) Blood was sampled serially from the dorsal metatarsal vein at pre-dose, 0.25, 0.5, 1, 2, 4, 8, 24, 48 (crystalline Form 2 only), and 72 hours (crystalline Form 2 only) post PO dosing. Approximately 0.03 mL blood was collected at each time point and centrifuged at 4000 G for 5 minutes at 4° C. to provide plasma. The plasma samples were then stored in a freezer at −75±15° C. prior to LC-MS/MS analysis.
(§2) Concentrations of each compound in the plasma samples were then analyzed using an LC-MS/MS method. WinNonlin (Phoenix™, version 6.1) or other similar software was used for PK calculations. The following PK parameters were calculated, whenever possible from the plasma concentration versus time data: Cmax, Tmax, T1/2, AUCinf, and AUClast. The PK data were described using descriptive statistics such as mean with standard deviation.
Mouse pharmacokinetic (PK) studies were conducted using Crystalline Form 8 of 6-(4-cyclopropyl-6-methoxypyrimidin-5-yl)-1-(4-(1-isopropyl-4-(trifluoromethyl)-1H-imidazol-2-yl)benzyl)-1H-pyrazolo[3,4-d]pyrimidine, as disclosed herein.
as §1, with “8,” for “8, 24, 48 (crystalline Form 2 only),”, “24” for “72”, “hours” for “hours (crystalline Form 2 only)”
as §2, with “of” for “of each”

[3] = Distribution in mouse brain and plasma after repeated oral dosing; type: in vivo; details: female NOD SCID mice; for concentration at 4 h / Kp at 4 h: 4 h (Day 28); for concentration at 24 h / Kp at 24 h: 24 h (Day 28); for Kp at 4 h / Kp at 24 h: brain/plasma, read-out: B/P Ratio
Experimental: Female NOD SCID mice of an age between 6-8 weeks and a body weight range of 18-22 g were purchased from Beijing Anikeeper Biotech Co, Ltd. Animals were habituated to the environment for at least 7 days prior to study initiation. Mice were dosed with Crystalline Form 2 at either 100 mg/kg or 300 mg/kg dose levels via oral gavage for 28 days. After 24 hours following 27 doses of compound, three mice were euthanized via CO2. After four hours following 28 doses of compound, three mice were euthanized via CO2. At each time point the whole brain was collected. In addition, approximately 0.03 mL of blood was collected at each time point and centrifuged at 4000 G for 5 minutes at 4° C. to provide plasma. Samples were then stored in a freezer at −75±15° C. prior to LC-MS/MS analysis. Concentrations of compound in brain homogenates (ng/g) and plasma (ng/ml) were then analyzed using an LC-MS/MS method. The PK data were described using descriptive statistics such as mean with standard deviation.

[4] = Distribution in rat brain and plasma after single oral dose; type: in vivo, Sprague Dawley rats; details: single oral dose 100 mg/kg; for Kp / Cmax / Tmax / half-life / AUC(0-inf): Sprague Dawley, rat; for Kp: brain and plasma, read-out: B/P Conc. Ratio at tmax
Experimental: Male and female Sprague Dawley rats were purchased from Beijing Anikeeper Biotech Co, Ltd. Animals were habituated to the environment prior to study initiation. Rats were dosed with single dose of 100 mg/kg crystalline Form 2 via oral gavage. The rats were fasted overnight prior to dosing. Animals had access to food from 2 hours post dose and free access to water throughout the study. Approximately 0.2 mL of blood was sampled via jugular vein at each time point and centrifuged at 4000 G for 5 minutes at 4° C. to provide plasma. Samples were then stored in a freezer at −75±15° C. prior to LC-MS/MS analysis. Whole brain was collected after hemoperfusion and snap frozen on dry ice prior to storage at −75±15° C. Prior to LC-MS/MS analysis whole brains were weighed and homogenized with water by tissue weight (g) to water volume (ml) ratio 1:3 before analysis. Actual concentration is the measured value multiplied by the dilution factor. The PK data were described using descriptive statistics such as mean with standard deviation.

[5] = Mouse 8, single PO dose 300 mg/kg, plasma, 300 mg/kg
[6] = Mouse 9, single PO dose 300 mg/kg, plasma, 300 mg/kg
[7] = brain, 100 mg/kg QD oral gavage, read-out: Brain Conc.
[8] = brain, 300 mg/kg QD oral gavage, read-out: Brain Conc.
[9] = plasma, 100 mg/kg QD oral gavage, read-out: Plasma Conc.
[10] = plasma, 300 mg/kg QD oral gavage, read-out: Plasma Conc.

Result (co-crystal screening) ([1]; Experiment 1: material as received): Free base
Result (co-crystal screening) ([1]; Experiment 6: benzoic acid (1:1.1 eq), EtOAc 0.5 mL/heptane 3 mL, agitated 1 day): Free base
Result (co-crystal screening) ([1]; Experiment 16: gallic acid in acetone, evaporation, glassy residue treated with water/isopropanol): Free base
Result (co-crystal screening) ([1]; Experiment 17: 300 mg, 430 mg gallic acid, EtOH, evaporated three days): Gallic acid
Compound: COc1ncnc(C2CC2)c1-c1ncc2cnn(Cc3ccc(-c4nc(C(F)(F)F)cn4C(C)C)cc3)c2n1 [Compound of Formula (II), 6-(4-cyclopropyl-6-methoxypyrimidin-5-yl)-1-(4-(1-isopropyl-4-(trifluoromethyl)-1H-imidazol-2-yl)benzyl)-1H-pyrazolo[3,4-d]pyrimidine]

Cmax ([2]; Mean, female NOD/SCID mice, single PO dose 300 mg/kg, plasma, 300 mg/kg): 28900 ng/mL
Tmax ([2]; Mouse 7, single PO dose 300 mg/kg, plasma): 8.00 h
AUClast [2, 5]: 835.713 µg·h/mL
Cmax [2, 5]: 28900 ng/mL
Cmax [2, 6]: 29000 ng/mL
Tmax [2, 6]: 12.0 h
mouse oral exposure levels compared with crystalline Form A (freebase) ([2]; at about 300 mg/kg): higher exposure levels
half-life ([2]; female, NOD/SCID, mouse, plasma, po, 300 mg/kg, Mouse 7, single PO dose 300 mg/kg): 4.03 h
concentration at 4 h [3, 7]: 1520 ± 559 ng/g
concentration at 24 h [3, 7]: 19.5 ng/g
concentration at 4 h [3, 8]: 6500 ± 1050 ng/g
concentration at 24 h [3, 8]: 66.1 ± 81.7 ng/g
Kp at 4 h ([3]; 100 mg/kg QD oral gavage): 0.306 ± 0.125
Kp at 24 h ([3]; 100 mg/kg QD oral gavage): 0.091 ± 0.014
Kp at 4 h ([3]; 300 mg/kg QD oral gavage): 0.424 ± 0.018
Kp at 24 h ([3]; 300 mg/kg QD oral gavage): 0.102 ± 0.007
concentration at 4 h [3, 9]: 5040 ± 694 ng/mL
concentration at 24 h [3, 9]: 178 ± 165 ng/mL
concentration at 4 h [3, 10]: 15300 ± 2320 ng/mL
concentration at 24 h [3, 10]: 667 ± 852 ng/mL
AUC0−∞ ([4]; Female SD rats, brain): 120933 ng·h/g
AUC0−∞ ([4]; Male SD rats, brain): 60596 ng·h/g
Kp ([4]; Female SD rats): 0.58
Kp ([4]; Male SD rats): 0.731
Cmax ([4]; Female SD rats, brain): 5610 ng/g
Tmax ([4]; Female SD rats, brain): 8 h
half-life ([4]; Female SD rats, brain): 12.8 h
AUC(0-inf) ([4]; Female SD rats, plasma): 266 µg·h/mL
Cmax ([4]; Female SD rats, plasma): 9760 ng/mL
Tmax ([4]; Female SD rats, plasma): 8 h
half-life ([4]; Female SD rats, plasma): 16.9 h
Cmax ([4]; Male SD rats, brain): 3900 ng/g
Tmax ([4]; Male SD rats, brain): 8 h
half-life ([4]; Male SD rats, brain): 7.43 h
AUC(0-inf) ([4]; Male SD rats, plasma): 102 µg·h/mL
Cmax ([4]; Male SD rats, plasma): 5300 ng/mL
Tmax ([4]; Male SD rats, plasma): 8 h
half-life ([4]; Male SD rats, plasma): 9.13 h
Compound: COc1ncnc(C2CC2)c1-c1ncc2cnn(Cc3ccc(-c4nc(C(F)(F)F)cn4C(C)C)cc3)c2n1 [Crystalline Form 2, 6-(4-cyclopropyl-6-methoxypyrimidin-5-yl)-1-(4-(1-isopropyl-4-(trifluoromethyl)-1H-imidazol-2-yl)benzyl)-1H-pyrazolo[3,4-d]pyrimidine]
